Test results as given in patent US4837239A, “Cardiotonic phosphodiesterase inhibitors complexed with water soluble vitamins” (Syntex (U.S.A.) Inc., priority 1986, dated 1989).
Values after ≈ are worked out from the molar mass of the structure shown.

What was measured:
Type in all cases: physicochemical
[1] = Solution-phase stability / shelf life (kinetic studies)
Text: A significant advantage of the lyophilization procedure of the present invention is that it provides for an extended shelf life as compared to that of the class of ocyalkylamides or even their vitamin complexes in solution. For example, the shelf life of a solution of the ascorbic acid complex of N-cyclohexyl-N-methyl-4-(2-oxo-1,2,3,5-tetrahydro-imidazo-[2,1-b]quinazolin-7-yl) oxybutyramide is only about 5 days. The lyophilized product prepared according to the formulation method of the present invention can be expected to permit a shelf life of at least two years.
The reason for the generally brief shelf lives in solution is that the class of oxyalkylamides has limited solution-phase stability. […] At pH 2, at which the compound is formulated, shelf life (T90) is less than a week. In a concentrated form in neat dimethylacetamide, polyethylene glycol or the like, the T90 is only about three weeks.

[2] = Electrochemical titration of excess ascorbic acid with the drug (FIGS. 4a and 4b); conditions: titration of excess ascorbic acid with hydrogen sulfate salt, in solution
Text: (§1) The present inventors have discovered that the compounds of Formula (I) form water-soluble complexes with water-soluble vitamins such as ascorbic acid, nicotinamide thiamine and pyridoxine. The phenomenon of complex formation can be confirmed by phase solubility experiments (FIGS. 1 and 2), and by spectral shifts and changes in electrochemical responses of the vitamins in the presence of these compounds (FIGS. 4a and 4b). For example, FIGS. 4a and 4b show the results of a titration of excess ascorbic acid with the hydrogen sulfate salt of N-cyclohexyl-N-methyl-4-(2-oxo-1,2,3,5-tetrahydroimidazo-[2,1-b]quinazolin-7-yl)oxybutyramide. It is hypothesized that the relatively planar tricyclic structure of the compound and the presence of non-bonding electrons on ring heteroatoms renders the compound capable of charge donation to suitable acceptors. In addition, the compound may also function as a charge acceptor due to the presence of a formal positive charge on a ring nitrogen at low pH (i.e., due to the presence of the planar cyclic cationic portion of the compound). Thus, the interaction with the water-soluble vitamin may be defined in terms of the existence of a charge transfer complex, resulting in enhanced water-solubility. […] The decrease in current is due to a lower diffusion coefficient of the complex.

[3] = Water solubility after complexation with ascorbic acid and lyophilization
Method: (§2) The improvement in solubility in the presence of water-solublevitamins is specifically illustrated by FIGS. 1 and 2. […] The solubility is still further enhanced by the lyophilization process of the present invention. For example, if the lyophilization procedure described below is followed, N-cyclohexyl-N-methyl-4-(2-oxo-1,2,3,5-tetrahydroimidazo-[2,1-b]quinazolin-7-yl)oxybutyramide is water-soluble to the extent of about 5,000 μg/ml at pH2 using 10% ascorbic acid (See FIG. 5).
6.5 grams of the sulfate salt of N-cyclohexyl-N-methyl-4-(2-oxo-1,2,3,5-tetrahydroimidazo[2,1-b]quinazolin- 7-yl)oxyburyamide were dissolved, along with 100 grams of ascorbic acid, 500 ml of tert-butyl alcohol, sufficient sulfuric acid to adjust the pH to 2.0, and sufficient water to bring the volume to 1 liter. The solution was stirred at room temperature for about 10 minutes and filtered with a 0.22 micron Milipore™ cellulose filter. 5 Milliliters of the solution were then dispensed into a 10 ml vial for lyophilization. In the lyophilization procedure, the condenser temperature was initially set to give a shelf temperature of -60° C., and the pressure was initially atmospheric. After the product had frozen, the pressure was gradually dropped to 10 milliTorr, and the vacuum was held for about a day. […]

[4] = Solid state stability in lyophilized powders at accelerated temperature and various states of humidity; conditions: for Appearance (Color): after 7 days
Method: Accordingly, in order to maximize the stability of such a compound for parenteral administration therapy, the present inventors have developed a lyophilization procedure. The lyophilization substantially removes water: the primary nucleophile responsible for the degradative hydrolysis of the compound in solution.
^a Made from 2 mL of tBuOH/AA/H2 O (50/10/40) with pH = 2.0 and
N--cyclohexylN--methyl4-(2-oxo-1,2,3,5-tetrahydroimidazo-2,1-bquinazolin-
-yl)oxybutyramide 130 mL
^b Capped means: not stored in the desiccator with the vial sealed.
47% RH capped and 47% RH holes mean: stored in a 47% relatively humidity
desiccator with the vial capped or covered with aluminum foil with 4 hole
in the foil respectively.
6.5 grams of the sulfate salt of N-cyclohexyl-N-methyl-4-(2-oxo-1,2,3,5-tetrahydroimidazo[2,1-b]quinazolin- 7-yl)oxyburyamide were dissolved, along with 100 grams of ascorbic acid, 500 ml of tert-butyl alcohol, sufficient sulfuric acid to adjust the pH to 2.0, and sufficient water to bring the volume to 1 liter. The solution was stirred at room temperature for about 10 minutes and filtered with a 0.22 micron Milipore™ cellulose filter. 5 Milliliters of the solution were then dispensed into a 10 ml vial for lyophilization. In the lyophilization procedure, the condenser temperature was initially set to give a shelf temperature of -60° C., and the pressure was initially atmospheric. After the product had frozen, the pressure was gradually dropped to 10 milliTorr, and the vacuum was held for about a day. Still under vacuum, the shelf temperature was slowly raised by incrementally increasing the temperature to the following values for about 6 hours at each value: -40° C., -20° C.; -10° C.; 0° C.; and 15°-25° C. During this lyophilization process, all the butanol and water were removed. The final lyophilized powder comprised 32.5 milligrams of N-cyclohexyl-N-methyl-4-(2-oxo-1,2,3,5-tetrahydroimidazo-[2,1-b]quinazolin-7-yl)oxybutyramide sulfate salt and 500 milligrams of ascorbic acid, some residual water (4% w/w) and tert-butyl alcohol (3% w/w) per vial.

[5] = Water solubility (phase solubility experiments) with and without water-soluble vitamin; conditions: for solubility: pH 2, read-out: water solubility (free base equivalent)
Text: as §1, §2

[6] = 40 °C., 47% RH capped (first line)
[7] = 40 °C., 47% RH capped (second line)

## CN(C(=O)CCCOc1ccc2c(c1)CN1CC(=O)NC1=N2)C1CCCCC1 [N-cyclohexyl-N-methyl-4-(2-oxo-1,2,3,5-tetrahydroimidazo-[2,1-b]quinazolin-7-yl)oxybutyramide]
[1]; concentrated form in neat dimethylacetamide, polyethylene glycol or the like
  T90: about three
[1]; in solution
  pH of maximum stability: ~6
[1]; in solution, about pH 6
  estimation shelf life in solution: six
[1]; in solution, pH 2
  shelf life (T90): less than a week
[1]; kinetic studies in solution
  degradation catalysis: both acid and base catalyzed
[2]
  electrochemical response of ascorbic acid: a shift in the peak potential and a reduction of the peak current of ascorbic acid
[3]; complexation with a water soluble vitamin and lyophilization (FIG. 5)
  solubility: enhancement of solubility
[3]; pH 2, pH2, 10% ascorbic acid, lyophilized (FIG. 5), read-out: water solubility after lyophilization procedure
  solubility: ~5000 µg/mL (≈ 13 mM)
[4]; 5 °C., Capped
  % Remaining, 7 days: 99.2%
  Appearance (Color): White
[4]; 25 °C., 47% RH capped
  % Remaining, 7 days: 100%
  % Remaining, 36 days: 100%
  Appearance (Color): White
[4]; 25 °C., Capped
  % Remaining, 7 days: 100%
  % Remaining, 36 days: 99.7%
  Appearance (Color): White
[4]; [6]
  % Remaining, 7 days: 100%
  % Remaining, 36 days: 96.7%
  Appearance (Color): Light yellow
[4]; 40 °C., 47% RH capped (second line), 5 days
  % Remaining, 5 days: 99.2%
[4]; [7]
  % Remaining, 7 days: 99.2%
  % Remaining, 36 days: 94.5%
  Appearance (Color): Light yellow
[4]; 40 °C., Capped
  % Remaining, 7 days: 100%
  % Remaining, 36 days: 94.4%
  Appearance (Color): Light yellow
[4]; RT, 47% RH holes
  % Remaining, 7 days: 100%
  % Remaining, 36 days: 100%
  Appearance (Color): White
[5]; in the presence of water soluble vitamins, and ethanol and propylene glycol (FIG. 2)
  water solubility: improved water solubility
[5]; in the presence of water-soluble vitamins (FIG. 1)
  water solubility: improved water solubility
[5]; pH2, absence of water-soluble vitamin
  solubility: ~120 µg/mL
[5]; water with 10% ascorbic acid, pH2, in the presence of 10% (about 0.6M) ascorbic acid
  solubility: ~420 µg/mL
